Assay results taken from PMC5218480 (PLoS ONE, 2017).

System: MV-4-11 cells
Test: Gene expression microarray analysis (Affymetrix PrimeView) and GSEA
Type: cell-based, human
Design: RFU PODN (11730768_x_at) / Fold change /veh PODN (11730768_x_at) / RFU LINC00158 (11744669_a_at) / Fold change /veh LINC00158 (11744669_a_at) / RFU DUSP10 (11751237_a_at) / Fold change /veh DUSP10 (11751237_a_at) / RFU ID3 (11757404_x_at) / Fold change /veh ID3 (11757404_x_at) / RFU PLEKHG5 (11737974_s_at) / Fold change /veh PLEKHG5 (11737974_s_at) / RFU LRRC4B (11730491_at) / Fold change /veh LRRC4B (11730491_at) / RFU GIMAP4 (11747438_a_at) / Fold change /veh GIMAP4 (11747438_a_at) / RFU KRT8 (11758183_x_at) / Fold change /veh KRT8 (11758183_x_at) / RFU CNN1 (11734310_a_at) / Fold change /veh CNN1 (11734310_a_at) / RFU VPS37D (11726825_at) / Fold change /veh VPS37D (11726825_at) / RFU C10orf10 (11716522_x_at) / Fold change /veh C10orf10 (11716522_x_at) / RFU KIR2DL2 /// KIR2DL4 /// KIR2DL5A /// KIR2DL5B /// KIR2DS1 /// KIR2DS2 /// KIR2DS3 /// KIR2DS4 /// KIR3DL3 /// KIR3DL3 /// KIR3DS1 (11738374_at) / Fold change /veh KIR2DL2 /// KIR2DL4 /// KIR2DL5A /// KIR2DL5B /// KIR2DS1 /// KIR2DS2 /// KIR2DS3 /// KIR2DS4 /// KIR3DL3 /// KIR3DL3 /// KIR3DS1 (11738374_at) / RFU C1QL1 (11718748_at) / Fold change /veh C1QL1 (11718748_at) / RFU TMPRSS4 (11747572_a_at) / Fold change /veh TMPRSS4 (11747572_a_at) / RFU HAMP (11756126_x_at) / Fold change /veh HAMP (11756126_x_at) / RFU RNFT2 (11725882_a_at) / Fold change /veh RNFT2 (11725882_a_at) / RFU NR4A2 (11747474_a_at) / Fold change /veh NR4A2 (11747474_a_at) / RFU ABCC12 (11746883_a_at) / Fold change /veh ABCC12 (11746883_a_at) / RFU TMEM136 (11760407_x_at) / Fold change /veh TMEM136 (11760407_x_at) / RFU CLDN22 /// WWC2 (11732394_at) / Fold change /veh CLDN22 /// WWC2 (11732394_at) / RFU HLA-DPB1 (11760878_x_at) / Fold change /veh HLA-DPB1 (11760878_x_at) / RFU SPINT1 (11716480_a_at) / Fold change /veh SPINT1 (11716480_a_at) / RFU GAP43 (11754022_s_at) / Fold change /veh GAP43 (11754022_s_at) / RFU A4GNT (11735810_at) / Fold change /veh A4GNT (11735810_at) / RFU PRB3 (11715151_x_at) / Fold change /veh PRB3 (11715151_x_at) / RFU TUBB4B (11761932_at) / Fold change /veh TUBB4B (11761932_at) / RFU CAPN14 (11732068_a_at) / Fold change /veh CAPN14 (11732068_a_at) / RFU TMCC2 (11721928_a_at) / Fold change /veh TMCC2 (11721928_a_at) / RFU IRGQ (11745062_a_at) / Fold change /veh IRGQ (11745062_a_at) / RFU FAM174B (11720279_a_at) / Fold change /veh FAM174B (11720279_a_at) / RFU TMPRSS4 (11748680_a_at) / Fold change /veh TMPRSS4 (11748680_a_at) / RFU FAM212B (11763350_a_at) / Fold change /veh FAM212B (11763350_a_at) / RFU PLEKHG5 (11743358_a_at) / Fold change /veh PLEKHG5 (11743358_a_at) / RFU ZSCAN30 (11745921_a_at) / Fold change /veh ZSCAN30 (11745921_a_at) / RFU CMKLR1 (11741424_a_at) / Fold change /veh CMKLR1 (11741424_a_at) / RFU LOC101060620 /// MAPK8IP1 (11723275_at) / Fold change /veh LOC101060620 /// MAPK8IP1 (11723275_at) / RFU SPTSSB (11747773_x_at) / Fold change /veh SPTSSB (11747773_x_at) / RFU PRSS12 (11739890_at) / Fold change /veh PRSS12 (11739890_at) / RFU BIN1 (11741810_x_at) / Fold change /veh BIN1 (11741810_x_at) / RFU WNT11 (11732464_a_at) / Fold change /veh WNT11 (11732464_a_at) / RFU C10orf10 (11716521_a_at) / Fold change /veh C10orf10 (11716521_a_at) / RFU C5orf56 (11738089_at) / Fold change /veh C5orf56 (11738089_at) / RFU CYB561 (11721691_x_at) / Fold change /veh CYB561 (11721691_x_at) / RFU ANKRD19P (11752326_a_at) / Fold change /veh ANKRD19P (11752326_a_at) / RFU OR2T12 /// OR2T33 /// OR2T8 (11738714_s_at) / Fold change /veh OR2T12 /// OR2T33 /// OR2T8 (11738714_s_at) / RFU VCAN (11748164_a_at) / Fold change /veh VCAN (11748164_a_at) / RFU JSRP1 (11732532_at) / Fold change /veh JSRP1 (11732532_at) / RFU KRTAP10-11 (11738290_x_at) / Fold change /veh KRTAP10-11 (11738290_x_at) / RFU MYO3A (11730013_a_at) / Fold change /veh MYO3A (11730013_a_at) / RFU EBF3 (11725865_a_at) / Fold change /veh EBF3 (11725865_a_at) / RFU CAMK2N1 (11719241_x_at) / Fold change /veh CAMK2N1 (11719241_x_at) / RFU C5orf56 (11738088_a_at) / Fold change /veh C5orf56 (11738088_a_at) / RFU OLFML3 (11715873_a_at) / Fold change /veh OLFML3 (11715873_a_at) / RFU LOC100653217 /// NTM (11731650_a_at) / Fold change /veh LOC100653217 /// NTM (11731650_a_at) / RFU MAPK11 (11762145_a_at) / Fold change /veh MAPK11 (11762145_a_at) / RFU FIZ1 (11724087_x_at) / Fold change /veh FIZ1 (11724087_x_at) / RFU OASL (11726364_x_at) / Fold change /veh OASL (11726364_x_at) / RFU SOX15 (11748057_x_at) / Fold change /veh SOX15 (11748057_x_at) / RFU CD79A (11719716_a_at) / Fold change /veh CD79A (11719716_a_at) / RFU HIST1H1D (11736915_at) / Fold change /veh HIST1H1D (11736915_at) / RFU CASKIN2 (11723855_a_at) / Fold change /veh CASKIN2 (11723855_a_at) / RFU LOC730098 (11760151_x_at) / Fold change /veh LOC730098 (11760151_x_at) / RFU OR4N2 (11742367_at) / Fold change /veh OR4N2 (11742367_at) / RFU PRRT2 (11749266_a_at) / Fold change /veh PRRT2 (11749266_a_at) / RFU SNX32 (11753110_a_at) / Fold change /veh SNX32 (11753110_a_at) / RFU CDHR5 (11726645_a_at) / Fold change /veh CDHR5 (11726645_a_at) / RFU RCAN1 (11760418_a_at) / Fold change /veh RCAN1 (11760418_a_at) / RFU FAM167A (11723789_a_at) / Fold change /veh FAM167A (11723789_a_at) / RFU FAM26E (11764081_at) / Fold change /veh FAM26E (11764081_at) / RFU ISYNA1 (11749810_s_at) / Fold change /veh ISYNA1 (11749810_s_at) / RFU ACY1 (11761880_at) / Fold change /veh ACY1 (11761880_at) / RFU 11764098_at / Fold change /veh 11764098_at / RFU SAMD14 (11745864_x_at) / Fold change /veh SAMD14 (11745864_x_at) / RFU NPB (11741838_a_at) / Fold change /veh NPB (11741838_a_at) / RFU TMPRSS6 (11731388_a_at) / Fold change /veh TMPRSS6 (11731388_a_at) / RFU KRTAP10-2 (11738614_at) / Fold change /veh KRTAP10-2 (11738614_at) / RFU ARHGAP8 /// PRR5-ARHGAP8 (11727945_x_at) / Fold change /veh ARHGAP8 /// PRR5-ARHGAP8 (11727945_x_at) / RFU KRTAP5-7 /// NADSYN1 (11734609_at) / Fold change /veh KRTAP5-7 /// NADSYN1 (11734609_at) / RFU RASL12 (11751679_a_at) / Fold change /veh RASL12 (11751679_a_at) / RFU CDKN2B (11736163_a_at) / Fold change /veh CDKN2B (11736163_a_at) / RFU PRF1 (11729649_at) / Fold change /veh PRF1 (11729649_at) / RFU, ZNF638 /// ZNF638-IT1 / Fold change vs veh, ZNF638 /// ZNF638-IT1 / RFU, PANK3 / Fold change vs veh, PANK3 / RFU, SH3YL1 / Fold change vs veh, SH3YL1 / RFU, ZEB2 / Fold change vs veh, ZEB2 / RFU, NRIP1 / Fold change vs veh, NRIP1 / RFU, PTTG1IP / Fold change vs veh, PTTG1IP / RFU, CAPN2 / Fold change vs veh, CAPN2 / RFU, MED14 / Fold change vs veh, MED14 / RFU, SNORA58 / Fold change vs veh, SNORA58 / RFU, C1orf63 / Fold change vs veh, C1orf63 / RFU, LRRFIP1 / Fold change vs veh, LRRFIP1 / RFU, NDUFAF7 / Fold change vs veh, NDUFAF7 / RFU, SLC12A2 / Fold change vs veh, SLC12A2 / RFU, IBTK / Fold change vs veh, IBTK / RFU, ESF1 / Fold change vs veh, ESF1 / Fold change vs veh, TMEM50B / RFU, TAOK1 / Fold change vs veh, TAOK1 / RFU, ACBD3 / Fold change vs veh, ACBD3 / RFU, TMA16 / Fold change vs veh, TMA16 / RFU, RWDD3 / Fold change vs veh, RWDD3 / RFU, BCAT1 / Fold change vs veh, BCAT1 / RFU, EDEM3 / Fold change vs veh, EDEM3 / RFU, TMEM33 / Fold change vs veh, TMEM33 / RFU, WDR75 / Fold change vs veh, WDR75 / RFU, AHCTF1 / Fold change vs veh, AHCTF1 / RFU, TFRC / Fold change vs veh, TFRC / RFU, ZDHHC17 / Fold change vs veh, ZDHHC17 / RFU, NOM1 / Fold change vs veh, NOM1 / RFU, ARL8B / Fold change vs veh, ARL8B / RFU, ZBTB11 / Fold change vs veh, ZBTB11 / RFU, TAMM41 / Fold change vs veh, TAMM41 / RFU, KIAA1704 /// LOC100996395 / Fold change vs veh, KIAA1704 /// LOC100996395 / RFU, ING1 / Fold change vs veh, ING1 / RFU, TRMT61B / Fold change vs veh, TRMT61B / RFU, FUBP3 / Fold change vs veh, FUBP3 / RFU, TP53 / Fold change vs veh, TP53 / RFU, TNKS2 / Fold change vs veh, TNKS2 / RFU, ZFP14 / Fold change vs veh, ZFP14 / RFU, ACTR2 / Fold change vs veh, ACTR2 / RFU, PPP3R1 / Fold change vs veh, PPP3R1 / RFU, PIK3R1 / Fold change vs veh, PIK3R1 / RFU, HNRNPA1 / Fold change vs veh, HNRNPA1 / RFU, RNF170 / Fold change vs veh, RNF170 / RFU, ZNF28 / Fold change vs veh, ZNF28 / RFU, RNGTT / Fold change vs veh, RNGTT / RFU, OGT / Fold change vs veh, OGT / RFU, BRD1 / Fold change vs veh, BRD1 / RFU, MARS / Fold change vs veh, MARS / RFU, ZNF655 / Fold change vs veh, ZNF655 / RFU, FAHD1 / Fold change vs veh, FAHD1 / RFU, BDP1 / Fold change vs veh, BDP1 / RFU, LRRCC1 / Fold change vs veh, LRRCC1 / RFU, ARID1A / Fold change vs veh, ARID1A / RFU, ZNF146 / Fold change vs veh, ZNF146 / RFU, ZNF330 / Fold change vs veh, ZNF330 / RFU, GPN3 / Fold change vs veh, GPN3 / RFU, C9orf123 / Fold change vs veh, C9orf123 / RFU, N4BP2L2 / Fold change vs veh, N4BP2L2 / RFU, ARFIP1 / Fold change vs veh, ARFIP1 / RFU, FAM179B / Fold change vs veh, FAM179B / RFU, BCL10 / Fold change vs veh, BCL10 / RFU, UHRF1BP1L / Fold change vs veh, UHRF1BP1L / RFU, BET1 / Fold change vs veh, BET1 / RFU, CNOT2 / Fold change vs veh, CNOT2 / RFU, ZNF268 / Fold change vs veh, ZNF268 / Fold change vs veh, ZNF507 / RFU, DGCR2 / Fold change vs veh, DGCR2 / RFU, WDSUB1 / Fold change vs veh, WDSUB1 / Fold change vs veh, HSP90B1 /// MIR3652 / RFU, ADSS / Fold change vs veh, ADSS / RFU, GK / Fold change vs veh, GK / RFU, ZNF148 / Fold change vs veh, ZNF148 / RFU, TAF9 / Fold change vs veh, TAF9 / RFU, SLC1A5 / Fold change vs veh, SLC1A5 / RFU, SLMO2 / Fold change vs veh, SLMO2 / RFU, ABCC4 / Fold change vs veh, ABCC4 / RFU, LOC101060439 /// RAP1B / Fold change vs veh, LOC101060439 /// RAP1B / RFU, RFX7 / Fold change vs veh, RFX7 / RFU, GTPBP10 / Fold change vs veh, GTPBP10 / RFU, CNEP1R1 / Fold change vs veh, CNEP1R1 / RFU, BIVM-ERCC5 /// ERCC5 / Fold change vs veh, BIVM-ERCC5 /// ERCC5 / RFU, ILF3 / Fold change vs veh, ILF3 / RFU 11762660_at / Fold change /veh 11762660_at / RFU VCAN (11757783_s_at) / Fold change /veh VCAN (11757783_s_at) / RFU DDX43 (11728927_at) / Fold change /veh DDX43 (11728927_at) / RFU KRT8 (11758188_x_at) / Fold change /veh KRT8 (11758188_x_at) / RFU NKD1 (11759106_at) / Fold change /veh NKD1 (11759106_at) / RFU SRD5A1 (11742802_a_at) / Fold change /veh SRD5A1 (11742802_a_at) / RFU TPSAB1 /// TPSB2 (11721975_s_at) / Fold change /veh TPSAB1 /// TPSB2 (11721975_s_at) / RFU GSTM3 (11746129_a_at) / Fold change /veh GSTM3 (11746129_a_at) / RFU IL23R (11737362_x_at) / Fold change /veh IL23R (11737362_x_at) / RFU TMEM51 (11727254_a_at) / Fold change /veh TMEM51 (11727254_a_at) / RFU PIWIL2 (11732686_x_at) / Fold change /veh PIWIL2 (11732686_x_at) / RFU ORM1 (11744905_x_at) / Fold change /veh ORM1 (11744905_x_at) / RFU CCDC152 (11743942_at) / Fold change /veh CCDC152 (11743942_at) / RFU ECM1 (11717891_a_at) / Fold change /veh ECM1 (11717891_a_at) / RFU IL23R (11748794_a_at) / Fold change /veh IL23R (11748794_a_at) / RFU TNFAIP8L3 (11732012_x_at) / Fold change /veh TNFAIP8L3 (11732012_x_at) / RFU MBOAT4 (11741988_at) / Fold change /veh MBOAT4 (11741988_at) / RFU 11764193_at / Fold change /veh 11764193_at / RFU TMEM53 (11763286_at) / Fold change /veh TMEM53 (11763286_at) / RFU MAGEB2 (11727129_at) / Fold change /veh MAGEB2 (11727129_at) / RFU TMEM200A (11744735_a_at) / Fold change /veh TMEM200A (11744735_a_at) / RFU CCDC152 (11751479_a_at) / Fold change /veh CCDC152 (11751479_a_at) / RFU FAM211A (11726209_a_at) / Fold change /veh FAM211A (11726209_a_at) / RFU RGS16 (11746705_a_at) / Fold change /veh RGS16 (11746705_a_at) / RFU VCAN (11755009_s_at) / Fold change /veh VCAN (11755009_s_at) / RFU RHOB (11743442_s_at) / Fold change /veh RHOB (11743442_s_at) / RFU RGS16 (11720943_a_at) / Fold change /veh RGS16 (11720943_a_at) / RFU RGS16 (11720944_at) / Fold change /veh RGS16 (11720944_at) / RFU, VPS4B / Fold change vs veh, VPS4B / RFU, CREB1 / Fold change vs veh, CREB1 / RFU, DNAJC13 / Fold change vs veh, DNAJC13 / RFU, GNAQ / Fold change vs veh, GNAQ / RFU, CDK5R1 / Fold change vs veh, CDK5R1 / RFU, ZRANB3 / Fold change vs veh, ZRANB3 / RFU, CUL4A / Fold change vs veh, CUL4A / RFU, CCNY / Fold change vs veh, CCNY / RFU, UFL1 / Fold change vs veh, UFL1 / RFU, COG3 / Fold change vs veh, COG3 / RFU, DIAPH2 / Fold change vs veh, DIAPH2 / RFU, SKA2 / Fold change vs veh, SKA2 / RFU, AFF3 / Fold change vs veh, AFF3 / RFU, LMF1 / Fold change vs veh, LMF1 / RFU, IPO11 / Fold change vs veh, IPO11 / RFU, DFFB / Fold change vs veh, DFFB / RFU, FOXP1 / Fold change vs veh, FOXP1 / RFU, CARD8 / Fold change vs veh, CARD8 / RFU, STRN3 / Fold change vs veh, STRN3 / RFU, ADK / Fold change vs veh, ADK / RFU, RASSF2 / Fold change vs veh, RASSF2 / RFU, WIPF1 / Fold change vs veh, WIPF1 / RFU, LARP1B / Fold change vs veh, LARP1B / RFU, RASA1 / Fold change vs veh, RASA1 / RFU, RB1 / Fold change vs veh, RB1 / RFU, PPFIA1 / Fold change vs veh, PPFIA1 / RFU, MAT2A / Fold change vs veh, MAT2A / RFU, CCT5 / Fold change vs veh, CCT5 / RFU, WDR92 / Fold change vs veh, WDR92 / RFU, CUX1 / Fold change vs veh, CUX1 / RFU, TTC7A / Fold change vs veh, TTC7A / RFU, TMEM135 / Fold change vs veh, TMEM135 / RFU, DEPTOR / Fold change vs veh, DEPTOR / RFU, CPM / Fold change vs veh, CPM / RFU, DNAJB6 / Fold change vs veh, DNAJB6 / RFU, CACNA2D3 / Fold change vs veh, CACNA2D3 / RFU, DTX4 / Fold change vs veh, DTX4 / RFU, TFCP2 / Fold change vs veh, TFCP2 / RFU, GMCL1 /// GMCL1P1 / Fold change vs veh, GMCL1 /// GMCL1P1 / RFU, AEBP2 / Fold change vs veh, AEBP2 / RFU, SNHG1 /// SNORD22 /// SNORD25 /// SNORD26 /// SNORD27 /// SNORD28 /// SNORD29 /// SNORD31 / Fold change vs veh, SNHG1 /// SNORD22 /// SNORD25 /// SNORD26 /// SNORD27 /// SNORD28 /// SNORD29 /// SNORD31 / Fold change (Aza/veh), C12orf56 (ProbeSet 11735607_a_at) / Fold change (ACY-1035/veh), C12orf56 (ProbeSet 11735607_a_at) / Fold change (Aza/veh), FGFR1OP (ProbeSet 11751329_s_at) / Fold change (ACY-1035/veh), FGFR1OP (ProbeSet 11751329_s_at) / Fold change (Aza/veh), VPS36 (ProbeSet 11739960_a_at) / Fold change (ACY-1035/veh), VPS36 (ProbeSet 11739960_a_at) / RFU SYPL1 (11715823_x_at) / Fold change /veh SYPL1 (11715823_x_at) / RFU IGFBP7 (11715501_s_at) / Fold change /veh IGFBP7 (11715501_s_at) / RFU REEP3 (11722064_at) / Fold change /veh REEP3 (11722064_at) / RFU IGLL1 (11728026_x_at) / Fold change /veh IGLL1 (11728026_x_at): dose or concentration left out as unconfirmed
Settings: ProbeSet 11729173_a_at; LIST D

Nc1ccc(-c2cccs2)cc1NC(=O)c1ccc2c(c1)cc(C1CC1)n2CCN1CCOCC1 [ACY-1035]
Fold change vs veh, SKA2: 0.84
